Measured values published in US20220119354A1, “DIAMINO-SUBSTITUTED PYRIDINES AND PYRIMIDINES AS HERBICIDES” (FMC Corporation, priority 2019, published 2022).

Experiments:
Format in all cases: in vivo
kochia (Kochia scoparia) [1] = assay: Test A preemergence, kochia; details: 0 to 100 scale; for Kochia plant response rating: 0 is no effect, 100 is complete control
Excerpt: (§1) Seeds of plant species selected from barnyardgrass (Echinochloa crus-galli), kochia (Kochia scoparia), ragweed (common ragweed, Ambrosia elatior), ryegrass, Italian (Lolium multiflorum), foxtail, giant (Setaria faberii), foxtail, green (Setaria viridis), and pigweed (Amaranthus retroflexus) were planted into a blend of loam soil and sand and treated preemergence with a directed soil spray using test chemicals formulated in a non-phytotoxic solvent mixture which included a surfactant.
(§2) At the same time, plants selected from these weed species and also wheat (Triticum aestivum), corn (Zea mays), blackgrass (Alopecurus myosuroides), and galium (catchweed bedstraw, Galium aparine) were planted in pots containing the same blend of loam soil and sand and treated with postemergence applications of test chemicals formulated in the same manner. Plants ranged in height from 2 to 10 cm and were in the one- to two-leaf stage for the postemergence treatment. Treated plants and untreated controls were maintained in a greenhouse for approximately 10 d, after which time all treated plants were compared to untreated controls and visually evaluated for injury. Plant response ratings, summarized in Table A, are based on a 0 to 100 scale where 0 is no effect and 100 is complete control. A dash (-) response means no test result.

[2] = test system: foxtail, giant (Setaria faberii); assay: Test A postemergence, giant foxtail; details: 0 to 100 scale
Excerpt: as §1, §2

[3] = test system: pigweed (Amaranthus retroflexus); assay: Test A postemergence, pigweed; details: 0 to 100 scale
Excerpt: as §1, §2

[4] = test system: ryegrass, Italian (Lolium multiflorum); assay: Test A postemergence, Italian ryegrass; details: 0 to 100 scale
Excerpt: as §1, §2

[5] = test system: wheat (Triticum aestivum); assay: Test A postemergence, wheat; details: 0 to 100 scale
Excerpt: as §1, §2

[6] = test system: ragweed (common ragweed, Ambrosia elatior); assay: Test A preemergence, ragweed; details: 0 to 100 scale, 0 is no effect, 100 is complete control
Excerpt: as §1, §2

[7] = test system: barnyardgrass (Echinochloa crus-galli); assay: Test A preemergence, barnyardgrass; details: 0 to 100 scale; for Barnyardgrass plant response rating: 0 is no effect, 100 is complete control
Excerpt: as §1, §2

[8] = test system: pigweed (Amaranthus retroflexus); assay: Test A preemergence, pigweed; details: 0 to 100 scale; for Pigweed plant response rating: 0 is no effect, 100 is complete control
Excerpt: as §1, §2

[9] = test system: foxtail, giant (Setaria faberii); assay: Test A preemergence, giant foxtail; details: 0 to 100 scale; for Foxtail, Giant plant response rating: 0 is no effect, 100 is complete control
Excerpt: as §1, §2

[10] = test system: ryegrass, Italian (Lolium multiflorum); assay: Test A preemergence, Italian ryegrass; details: 0 to 100 scale, 0 is no effect, 100 is complete control
Excerpt: as §1, §2

kochia (Kochia scoparia) [11] = assay: Test A postemergence, kochia; details: 0 to 100 scale
Excerpt: as §1, §2

corn (Zea mays) = assay: Test A postemergence, corn; details: 0 to 100 scale
Excerpt: as §1, §2

[12] = test system: galium (catchweed bedstraw, Galium aparine); assay: Test A postemergence, galium; details: 0 to 100 scale
Excerpt: as §1, §2

[13] = test system: ragweed (common ragweed, Ambrosia elatior); assay: Test A postemergence, ragweed; details: 0 to 100 scale
Excerpt: as §1, §2

[14] = test system: blackgrass (Alopecurus myosuroides); assay: Test A postemergence, blackgrass; details: 0 to 100 scale
Excerpt: as §1, §2

[15] = test system: barnyardgrass (Echinochloa crus-galli); assay: Test A postemergence, barnyardgrass; details: 0 to 100 scale
Excerpt: as §1, §2

[16] = test system: sedge, umbrella (small-flower umbrella sedge, Cyperus difformis); assay: Test B flooded paddy test, umbrella sedge; details: Flood, 250 g ai/ha, applied to paddy water, 2-leaf stage, visual evaluation after 13 to 15 d
Description: (§3) Plant species in the flooded paddy test selected from rice (Oryza sativa), sedge, umbrella (small-flower umbrella sedge, Cyperus difformis), ducksalad (Heteranthera limosa), and barnyardgrass (Echinochloa crus-galli) were grown to the 2-leaf stage for testing. At the time of treatment, test pots were flooded to 3 cm above the soil surface, treated by application of test compounds directly to the paddy water, and then maintained at that water depth for the duration of the test. Treated plants and controls were maintained in a greenhouse for 13 to 15 d, after which time all species were compared to controls and visually evaluated. Plant response ratings, summarized in Table B, are based on a scale of 0 to 100 where 0 is no effect and 100 is complete control. A dash (-) response means no test result.

[17] = test system: barnyardgrass (Echinochloa crus-galli); assay: Test B flooded paddy test, barnyardgrass; details: Flood, 250 g ai/ha, applied to paddy water, 2-leaf stage, visual evaluation after 13 to 15 d
Description: as §3

[18] = test system: ducksalad (Heteranthera limosa); assay: Test B flooded paddy test, ducksalad; details: Flood, 250 g ai/ha, applied to paddy water, 2-leaf stage, visual evaluation after 13 to 15 d
Description: as §3

rice (Oryza sativa) = assay: Test B flooded paddy test, rice; details: Flood, 250 g ai/ha, applied to paddy water, 2-leaf stage, visual evaluation after 13 to 15 d
Description: as §3

[19] = 1000 g ai/ha, 0 is no effect, 100 is complete control
[20] = 125 g ai/ha, 0 no effect, 100 complete control
[21] = 500 g ai/ha, 0 no effect, 100 complete control

## C[C@@H](Nc1nc(N)cc(C(F)(F)F)n1)c1cc2ccccc2s1 [Compound 97]
Kochia (Kochia scoparia) [1]; 1000 g ai/ha
  Kochia plant response rating: 0
[2]; [19]
  Foxtail, Giant plant response rating: 0
[3]; [19]
  Pigweed plant response rating: 0
[4]; [19]
  Ryegrass, Italian plant response rating: 0
[5]; [19]
  Wheat plant response rating: 0
[6]; 1000 g ai/ha
  Ragweed plant response rating: 0
[7]; 1000 g ai/ha
  Barnyardgrass plant response rating: 0
[8]; 1000 g ai/ha
  Pigweed plant response rating: 0
[9]; 1000 g ai/ha
  Foxtail, Giant plant response rating: 0
[10]; 1000 g ai/ha
  Ryegrass, Italian plant response rating: 0
Kochia (Kochia scoparia) [11]; [19]
  Kochia plant response rating: 20
Corn (Zea mays); [19]
  Corn plant response rating: 0
[12]; [19]
  Galium plant response rating: 20
[13]; [19]
  Ragweed plant response rating: 0
[14]; [19]
  Blackgrass plant response rating: 0
[15]; [19]
  Barnyardgrass plant response rating: 0

## Cc1cc(OCC(C)Nc2ncc(C(F)(F)F)c(N)n2)ccc1F (centres unmarked) [Compound 38]
Kochia (Kochia scoparia) [1]; 125 g ai/ha
  Kochia plant response rating: 0
Kochia (Kochia scoparia) [1]; 500 g ai/ha
  Plant response rating, Kochia: 60
[2]; 125 g ai/ha
  Plant response rating, Foxtail, Giant: 0
[2]; 500 g ai/ha
  Plant response rating, Foxtail, Giant: 0
[3]; 125 g ai/ha
  Plant response rating, Pigweed: 20
[3]; 500 g ai/ha
  Plant response rating, Pigweed: 80
[4]; 125 g ai/ha
  Plant response rating, Ryegrass, Italian: 0
[4]; 500 g ai/ha
  Plant response rating, Ryegrass, Italian: 0
[5]; 125 g ai/ha
  Plant response rating, Wheat: 0
[5]; 500 g ai/ha
  Plant response rating, Wheat: 0
[16]
  Plant response rating, Sedge, Umbrella (0 to 100 scale, 0 is no effect, 100 is complete control): 0
[7]; 125 g ai/ha
  Barnyardgrass plant response rating: 30
[7]; 500 g ai/ha
  Plant response rating, Barnyardgrass: 90
[17]
  Plant response rating, Barnyardgrass (0 to 100 scale, 0 is no effect, 100 is complete control): 0
[18]
  Plant response rating, Ducksalad (0 to 100 scale, 0 is no effect, 100 is complete control): 0
Rice (Oryza sativa)
  Plant response rating, Rice (0 to 100 scale, 0 is no effect, 100 is complete control): 0
[8]; 125 g ai/ha
  Pigweed plant response rating: 50
[8]; 500 g ai/ha
  Plant response rating, Pigweed: 90
[9]; 125 g ai/ha
  Foxtail, Giant plant response rating: 20
[9]; 500 g ai/ha
  Plant response rating, Foxtail, Giant: 90
Kochia (Kochia scoparia) [11]; 125 g ai/ha
  Plant response rating, Kochia: 0
Kochia (Kochia scoparia) [11]; 500 g ai/ha
  Plant response rating, Kochia: 30
Corn (Zea mays); 125 g ai/ha
  Plant response rating, Corn: 0
Corn (Zea mays); 500 g ai/ha
  Plant response rating, Corn: 0
[12]; 125 g ai/ha
  Plant response rating, Galium: 30
[12]; 500 g ai/ha
  Plant response rating, Galium: 70
[13]; 125 g ai/ha
  Plant response rating, Ragweed: 0
[13]; 500 g ai/ha
  Plant response rating, Ragweed: 0
[14]; 125 g ai/ha
  Plant response rating, Blackgrass: 0
[14]; 500 g ai/ha
  Plant response rating, Blackgrass: 0
[15]; 125 g ai/ha
  Plant response rating, Barnyardgrass: 0
[15]; 500 g ai/ha
  Plant response rating, Barnyardgrass: 0

## Cc1cccc2oc(C(C)Nc3ncc(C(F)(F)F)c(N)n3)cc12 (centres unmarked) [Compound 101]
Kochia (Kochia scoparia) [1]; 125 g ai/ha
  Kochia plant response rating: 90
Kochia (Kochia scoparia) [1]; 500 g ai/ha
  Kochia plant response rating: 90
[2]; [20]
  Plant response rating, Foxtail, Giant: 10
[2]; [21]
  Plant response rating, Foxtail, Giant: 100
[3]; [20]
  Plant response rating, Pigweed: 100
[3]; [21]
  Plant response rating, Pigweed: 100
[4]; [20]
  Plant response rating, Ryegrass, Italian: 60
[4]; [21]
  Plant response rating, Ryegrass, Italian: 70
[5]; [20]
  Plant response rating, Wheat: 0
[5]; [21]
  Plant response rating, Wheat: 40
[6]; 125 g ai/ha
  Ragweed plant response rating: 70
[6]; 500 g ai/ha
  Ragweed plant response rating: 100
[7]; 125 g ai/ha
  Barnyardgrass plant response rating: 90
[7]; 500 g ai/ha
  Barnyardgrass plant response rating: 90
[8]; 125 g ai/ha
  Pigweed plant response rating: 70
[8]; 500 g ai/ha
  Pigweed plant response rating: 100
[9]; 125 g ai/ha
  Foxtail, Giant plant response rating: 100
[9]; 500 g ai/ha
  Foxtail, Giant plant response rating: 100
[10]; 125 g ai/ha
  Ryegrass, Italian plant response rating: 30
[10]; 500 g ai/ha
  Ryegrass, Italian plant response rating: 90
Kochia (Kochia scoparia) [11]; [20]
  Plant response rating, Kochia: 70
Kochia (Kochia scoparia) [11]; [21]
  Plant response rating, Kochia: 100
Corn (Zea mays); [20]
  Plant response rating, Corn: 0
Corn (Zea mays); [21]
  Plant response rating, Corn: 40
[12]; [20]
  Plant response rating, Galium: 80
[12]; [21]
  Plant response rating, Galium: 90
[13]; [20]
  Plant response rating, Ragweed: 30
[13]; [21]
  Plant response rating, Ragweed: 100
[14]; [20]
  Plant response rating, Blackgrass: 20
[14]; [21]
  Plant response rating, Blackgrass: 70
[15]; [20]
  Plant response rating, Barnyardgrass: 30
[15]; [21]
  Plant response rating, Barnyardgrass: 100
